Assay results from patent US9951028B2, “Agricultural chemicals” (REDAG CROP PROTECTION LTD, priority 2013, dated 2018).

Experiments:
[1] = tested on: common chickweed, Stellaria media; assay: Herbicidal efficacy screen, potter tower spray, necrosis assessed; assay type: in vivo
Protocol: (§1) Compounds 22, 23 and 24 were screened for herbicidal efficacy against target plants: garden cress, Lepidium sativum, common chickweed, Stellaria media, and white mustard […] alba Plants were obtained as seeds and were grown to the 2-4 true leaf stage. Plants were grown under laboratory conditions, individually in seed trays. Each plant (in an approximately 3 cm diameter plug) was then detached from the tray for spraying. The compounds were screened at a range of five concentrations, diluted in acetone and TweenTM. A carrier only control was also conducted. Treatments were applied directly onto the plants, using a potter tower, at a specified application rate. One plant of each species was sprayed using a potter tower. The 3 different types of plants were placed on a 10 cm diameter platform directly beneath the potter sprayer and sprayed simultaneously. The growth of the plants and any Phytotoxicity effects were then assessed at intervals over 21 days, according to EPPO guideline PP1/135. Five replicas were performed for each treatment, for each species. In the tables below C represents a percentage increase in necrosis relative to the control of 0.1-50; B represents a percentage inhibition of 50-80; and A represents a percentage inhibition of 80-100.

[2] = tested on: garden cress, Lepidium sativum; assay: as above; assay type: in vivo
Protocol: as §1

[3] = 12.5 g/ha, day 1 post application
[4] = 12.5 g/ha, day 2 post application
[5] = 12.5 g/ha, day 3 post application
[6] = 12.5 g/ha, day 4 post application
[7] = 12.5 g/ha, day 5 post application
[8] = 12.5 g/ha, day 7 post application
[9] = 12.5 g/ha, day 10 post application
[10] = 25 g/ha, day 1 post application
[11] = 25 g/ha, day 2 post application
[12] = 25 g/ha, day 3 post application
[13] = 25 g/ha, day 4 post application
[14] = 25 g/ha, day 5 post application
[15] = 25 g/ha, day 7 post application
[16] = 25 g/ha, day 10 post application
[17] = 50 g/ha, day 1 post application
[18] = 50 g/ha, day 2 post application
[19] = 50 g/ha, day 3 post application
[20] = 50 g/ha, day 4 post application
[21] = 50 g/ha, day 5 post application
[22] = 50 g/ha, day 7 post application
[23] = 50 g/ha, day 10 post application
[24] = 100 g/ha, day 1 post application
[25] = 100 g/ha, day 2 post application
[26] = 100 g/ha, day 3 post application
[27] = 100 g/ha, day 4 post application
[28] = 100 g/ha, day 5 post application
[29] = 100 g/ha, day 7 post application
[30] = 100 g/ha, day 10 post application
[31] = 200 g/ha, day 1 post application
[32] = 200 g/ha, day 2 post application
[33] = 200 g/ha, day 3 post application
[34] = 200 g/ha, day 4 post application

CC(C)C(C)S(=O)(=O)NCc1cc(-n2c(=O)cc(C(F)(F)F)n(C)c2=O)c(F)cc1Cl (stereo not shown) [Compound 24, N-[[2-Chloro-4-fluoro-5-[3-methyl-2,6-dioxo-4-(trifluoromethyl)pyrimidin-1-yl]phenyl]methyl]-3-methyl-butane-2-sulfonamide]
Average of necrosis [1, 3]: C (C represents a percentage increase in necrosis relative to the control of 0.1-50) | Average of necrosis [1, 4]: C (C represents a percentage increase in necrosis relative to the control of 0.1-50) | Average of necrosis [1, 5]: C (C represents a percentage increase in necrosis relative to the control of 0.1-50) | Average of necrosis [1, 6]: C (C represents a percentage increase in necrosis relative to the control of 0.1-50) | Average of necrosis [1, 7]: C (C represents a percentage increase in necrosis relative to the control of 0.1-50) | Average of necrosis [1, 8]: C (C represents a percentage increase in necrosis relative to the control of 0.1-50) | Average of necrosis [1, 9]: C (C represents a percentage increase in necrosis relative to the control of 0.1-50) | Average of necrosis [1, 10]: C (C represents a percentage increase in necrosis relative to the control of 0.1-50) | Average of necrosis [1, 11]: C (C represents a percentage increase in necrosis relative to the control of 0.1-50) | Average of necrosis [1, 12]: C (C represents a percentage increase in necrosis relative to the control of 0.1-50) | Average of necrosis [1, 13]: C (C represents a percentage increase in necrosis relative to the control of 0.1-50) | Average of necrosis [1, 14]: C (C represents a percentage increase in necrosis relative to the control of 0.1-50) | Average of necrosis [1, 15]: C (C represents a percentage increase in necrosis relative to the control of 0.1-50) | Average of necrosis [1, 16]: C (C represents a percentage increase in necrosis relative to the control of 0.1-50) | Average of necrosis [1, 17]: C (C represents a percentage increase in necrosis relative to the control of 0.1-50) | Average of necrosis [1, 18]: C (C represents a percentage increase in necrosis relative to the control of 0.1-50) | Average of necrosis [1, 19]: C (C represents a percentage increase in necrosis relative to the control of 0.1-50) | Average of necrosis [1, 20]: C (C represents a percentage increase in necrosis relative to the control of 0.1-50) | Average of necrosis [1, 21]: A (A represents a percentage inhibition of 80-100) | Average of necrosis [1, 22]: A (A represents a percentage inhibition of 80-100) | Average of necrosis [1, 23]: A (A represents a percentage inhibition of 80-100) | Average of necrosis [1, 24]: C (C represents a percentage increase in necrosis relative to the control of 0.1-50) | Average of necrosis [1, 25]: C (C represents a percentage increase in necrosis relative to the control of 0.1-50) | Average of necrosis [1, 26]: C (C represents a percentage increase in necrosis relative to the control of 0.1-50) | Average of necrosis [1, 27]: B (B represents a percentage inhibition of 50-80) | Average of necrosis [1, 28]: B (B represents a percentage inhibition of 50-80) | Average of necrosis [1, 29]: B (B represents a percentage inhibition of 50-80) | Average of necrosis [1, 30]: A (A represents a percentage inhibition of 80-100) | Average of necrosis [1, 31]: C (C represents a percentage increase in necrosis relative to the control of 0.1-50) | Average of necrosis [1, 32]: C (C represents a percentage increase in necrosis relative to the control of 0.1-50) | Average of necrosis [1, 33]: C (C represents a percentage increase in necrosis relative to the control of 0.1-50) | Average of necrosis [1, 34]: C (C represents a percentage increase in necrosis relative to the control of 0.1-50) | Average of necrosis ([1]; 200 g/ha, day 5 post application): A (A represents a percentage inhibition of 80-100) | Average of necrosis ([1]; 200 g/ha, day 7 post application): A (A represents a percentage inhibition of 80-100) | Average of necrosis ([1]; 200 g/ha, day 10 post application): A (A represents a percentage inhibition of 80-100) | Average of necrosis [2, 3]: C (C represents a percentage increase in necrosis relative to the control of 0.1-50) | Average of necrosis [2, 4]: C (C represents a percentage increase in necrosis relative to the control of 0.1-50) | Average of necrosis [2, 5]: C (C represents a percentage increase in necrosis relative to the control of 0.1-50) | Average of necrosis [2, 6]: C (C represents a percentage increase in necrosis relative to the control of 0.1-50) | Average of necrosis [2, 7]: C (C represents a percentage increase in necrosis relative to the control of 0.1-50) | Average of necrosis [2, 8]: C (C represents a percentage increase in necrosis relative to the control of 0.1-50) | Average of necrosis [2, 9]: B (B represents a percentage inhibition of 50-80) | Average of necrosis [2, 10]: C (C represents a percentage increase in necrosis relative to the control of 0.1-50) | Average of necrosis [2, 11]: C (C represents a percentage increase in necrosis relative to the control of 0.1-50) | Average of necrosis [2, 12]: C (C represents a percentage increase in necrosis relative to the control of 0.1-50) | Average of necrosis [2, 13]: C (C represents a percentage increase in necrosis relative to the control of 0.1-50) | Average of necrosis [2, 14]: C (C represents a percentage increase in necrosis relative to the control of 0.1-50) | Average of necrosis [2, 15]: C (C represents a percentage increase in necrosis relative to the control of 0.1-50) | Average of necrosis [2, 16]: C (C represents a percentage increase in necrosis relative to the control of 0.1-50) | Average of necrosis [2, 17]: C (C represents a percentage increase in necrosis relative to the control of 0.1-50) | Average of necrosis [2, 18]: C (C represents a percentage increase in necrosis relative to the control of 0.1-50) | Average of necrosis [2, 19]: B (B represents a percentage inhibition of 50-80) | Average of necrosis [2, 20]: B (B represents a percentage inhibition of 50-80) | Average of necrosis [2, 21]: B (B represents a percentage inhibition of 50-80) | Average of necrosis [2, 22]: A (A represents a percentage inhibition of 80-100) | Average of necrosis [2, 23]: A (A represents a percentage inhibition of 80-100) | Average of necrosis [2, 24]: C (C represents a percentage increase in necrosis relative to the control of 0.1-50) | Average of necrosis [2, 25]: C (C represents a percentage increase in necrosis relative to the control of 0.1-50) | Average of necrosis [2, 26]: C (C represents a percentage increase in necrosis relative to the control of 0.1-50) | Average of necrosis [2, 27]: B (B represents a percentage inhibition of 50-80) | Average of necrosis [2, 28]: B (B represents a percentage inhibition of 50-80) | Average of necrosis [2, 29]: B (B represents a percentage inhibition of 50-80) | Average of necrosis [2, 30]: B (B represents a percentage inhibition of 50-80) | Average of necrosis [2, 31]: C (C represents a percentage increase in necrosis relative to the control of 0.1-50) | Average of necrosis [2, 32]: C (C represents a percentage increase in necrosis relative to the control of 0.1-50) | Average of necrosis [2, 33]: C (C represents a percentage increase in necrosis relative to the control of 0.1-50) | Average of necrosis [2, 34]: C (C represents a percentage increase in necrosis relative to the control of 0.1-50)
